# Experimental data as given in patent US5650442A (priority 1994, dated 1997).
# “Also recorded” adds a separate entry of the source.
# Tests used:
# [1] = system: Chinese hamster V79 lung fibroblasts; test: Radiation survival of hypoxic V79 cells (metabolism-mediated oxygen depletion), clonogenic assay, SER; format: cell-based; details: for modification of hypoxic radiosensitivity: 2.0 mM; for SER: 2.00 mM, hypoxic, 1% surviving fraction level, ± SD
# Method: (§1) Chinese hamster V79 lung fibroblasts were cultured in F12 medium supplemented with 10% fetal calf serum and antibiotics. […] The assay system was specifically designed to evaluate radiation sensitivity of cells exposed to radiation under both aerobic and hypoxic conditions (Mitchell et al., Radiat. Res., 96, 422-428 (1983); Russo et al., Radiat. Res., 103, 232-239 (1985); and DeGraff et al., Int. J. Radiat. Oncol. Biol. Phys., 16, 1021-1024 (1989)).
# (§2) When cultured cells were exposed to DEA/NO in subsequent examples, DEA/NO in F12 medium with 10 mM HEPES buffer, pH 7.0, was used. […] Control cells in subsequent examples were exposed to 0.02N NaOH, instead of DEA/NO.
# The induction of hypoxia in dense cell suspensions by metabolism-mediated oxygen depletion was carried out as described by Mitchell et al. (supra) and Phillips et al. (Int. J. Radiat. Oncol. Biol. Phys., 12, 1627-1635 (1986)). Briefly, stock cultures of exponentially growing Chinese hamster V79 lung fibroblasts in 850 cm^2 roller bottles were trypsinized, rinsed with medium, and counted. Samples of 10^8 cells were then placed in 15 ml centrifuge tubes, centrifuged at 1,000 rpm for 5 min at 25° C., and rinsed once with medium or medium containing DEA/NO (final concentrations ranging from 0.1-2.0 mM), nitrite, diethylamine, or DEA/NO that had been allowed to decompose in full medium overnight at 37° C.
# The cell suspension was taken up into a 3 ml glass syringe with a 18 gauge spinal needle. Air bubbles were removed, and a 25 gauge needle was fitted onto the syringe. The syringe was rotated by hand at room temperature for 20 min to allow for cellular metabolic oxygen consumption. The syringe was then placed in a lucite block and irradiated. After a given dose of radiation, 1-3 drops of cell suspension were discarded, and 1-2 drops were collected in tubes containing drug-free medium. In this manner an entire hypoxic survival curve for a given treatment condition can be obtained from a single syringe.
# (§3) Hypoxic Chinese hamster V79 lung fibroblasts of Example 2 were irradiated at room temperature with 4 MeV photons from a linear accelerator at a dose rate of 1.5 Gy/min. Full electron equilibrium was ensured for all irradiations.
# (§4) Following irradiation, the various cell suspensions were pipetted, counted, diluted, and plated for macroscopic colony formation. Each dose determination was plated in triplicate and experiments were repeated a minimum of two times. Plates were incubated for seven days, after which colonies were fixed with methanol/acetic acid (3:1), stained with crystal violet, and counted. Colonies containing >50 cells were scored and graphed as FIGS. 1-3. Error bars in the graphs represent the standard deviation of the mean and are shown when larger than the symbol used to designate a data point. Survival curve data were fitted using a linear quadratic model of Albright (Radiat. Res., 112, 331-340 (1987)), and the survival curves shown in the figures represent the best fit curves for the experimental data points. Sensitizer enhancement ratios (SER) were calculated by dividing the radiation dose for control hypoxic conditions by the radiation dose for various agents under hypoxic conditions at the 1% surviving fraction level.
# Radiation survival curves for V79 cells exposed to varying concentrations of DEA/NO and various DEA/NO decomposition products under hypoxic conditions (metabolic hypoxia induction) are shown in FIG. 1A, which is a graph of the surviving fraction versus dose (Gy).
# [2] = system: Chinese hamster V79 lung fibroblasts; test: Cytotoxicity of the agents alone to V79 cells, clonogenic assay; details: 2.0 mM
# Method: as §1, §2
# Radiation survival curves for V79 cells exposed to varying concentrations of DEA/NO and various DEA/NO decomposition products under hypoxic conditions (metabolic hypoxia induction) are shown in FIG. 1A, which is a graph of the surviving fraction versus dose (Gy). Lines in FIG. 1A represent control (.circle-solid.) and 0.1 mM (Δ), 0.5 mM (.largecircle.), 1.0 mM (.quadrature.), and 2.0 mM (.box-solid.) DEA/NO. Survival curves were corrected for drug cytotoxicity as appropriate.
# DEA/NO (2.0 mM) was allowed to decompose to liberate NO in medium maintained at 37° C. overnight in a flask open to the air for use as an additional control. The medium containing the DEA/NO decomposition products was then used to evaluate possible effects on radiosensitization.
# [3] = system: Chinese hamster V79 lung fibroblasts; test: Radiation survival of aerobic V79 cells, clonogenic assay; format: cell-based; details: 2.0 mM
# Method: as §1, §2, §4
# [4] = system: normal tissues; details: clinical radiotherapy trials; cited from earlier work
# [5] = system: Chinese hamster V79 cells; test: Survival of hypoxic V79 cells after a single radiation dose; format: cell-based; details: vs control cells
# Method: Chinese hamster V79 cells were exposed to 15 Gy radiation under hypoxic conditions in the absence or presence of 1 mM SPER/NO (H2 N(CH2)3 N[N(O)NO]^- (CH2)4 NH2^+ (CH2)3 NH2).
# Chinese hamster V79 cells were exposed to 20 Gy radiation under hypoxic conditions in the absence or presence of 2 mM SNAP.
# Chinese hamster V79 cells were exposed to a single 20 Gy dose of radiation in the absence or presence of 2 mM SIN-1 or PAPA/NO. […] The data are consistent with the requirement of SIN-1 for oxygen, unlike the NONOates, which release NO independent of oxygen levels.
# [6] = system: Chinese hamster V79 fibroblasts; test: Protection of V79 cells from cisplatin cytotoxicity; format: cell-based; details: 1 mM, 1 hr
# Method: Chinese hamster V79 fibroblasts were exposed to varying concentrations of cisplatin under aerobic conditions for 1 hr in the presence or absence of 1 mM PAPA/NO, n-propyl-1,3-propane diamine (PPD), or released PAPA/NO under aerobic conditions. Methods used were as described in Examples 2 and 13.
# [7] = system: Chinese hamster V79 fibroblasts; test: Chemosensitization of V79 cells to bioreductive agents (mitomycin C, SR 4233); details: hypoxic, 1 hr
# [8] = system: transplantable murine tumor; details: mouse, in vivo; cited from earlier work
# [9] = system: embryohal ovarian carcinoma (EOC) ascites tumors; test: Survival of mice with EOC ascites tumors treated with melphalan with or without DEA/NO; format: in vivo, C3H mice
# Method: Female C3H mice with embryohal ovarian carcinoma (EOC) ascites tumors were generated by intraperitoneal injection of 1.0×10^5 EOC cells at 10 weeks. Eight days later, when ascites were grossly evident, the animals were injected intraperitoneally with phosphate-buffered saline (PBS) as a control, melphalan (6.25 mg/kg), or melphan in combination with DEA/NO (70 mg/kg). Animals were assessed daily for survival.
# FIG. 17 is a graph of % survival of animals versus days after treatment showing survival curves for animals treated with melphalan in the presence or absence of DEA/NO compared to control animals. Median survival of the control group was 15 days. Median survival of the group of mice treated with melphalan alone was 20 days, whereas median survival of the group of mice treated with melphalan and DEA/NO was 27 days.
# [10] = system: Chinese hamster V79 lung fibroblasts; test: Radiation survival of hypoxic V79 monolayers gassed with nitrogen and exposed to NO gas; format: cell-based
# Method: as §3, §4
# [11] = system: cells in culture; details: aerobic (~20% oxygen) vs hypoxic (<0.5% oxygen); cited from earlier work
# [12] = system: rodent tumors; details: hyperbaric oxygen (100%); cited from earlier work
# [13] = system: hypoxic cells; details: without the nitrobenzoyl group; cited from earlier work
# [14] = system: hypoxic bacterial cells; details: cited from earlier work
# [15] = system: lungs; details: NO gas, in vivo; cited from earlier work
molecule,measurement,setting,value
"CCNCC [Diethylamine, diethylamine, reference compound]",modification of hypoxic radiosensitivity,[1],nor did any of these agents significantly modify hypoxic radiosensitivity
same,SER,[1],1.0
same,cytotoxicity of decomposition products alone,[2],"Neither nitrite, diethylamine, or decomposed DEA/NO alone resulted in any cytotoxicity"
same,effect on aerobic radiosensitivity,[3],did not significantly alter the aerobic radiosensitivity
"COCC(O)Cn1ccnc1[N+](=O)[O-] (centres unmarked) [Misonidazole, misonidazole]",toxicity to normal tissues,[4],"toxic to normal tissues, causing peripheral neuropathy"
"O=NO [Nitrite, nitrite, reference compound]",modification of hypoxic radiosensitivity,[1],nor did any of these agents significantly modify hypoxic radiosensitivity
same,SER,[1],1.0
same,cytotoxicity of decomposition products alone,[2],"Neither nitrite, diethylamine, or decomposed DEA/NO alone resulted in any cytotoxicity"
same,effect on aerobic radiosensitivity,[3],did not significantly alter the aerobic radiosensitivity
CCCN(CCCN)/[N+]([O-])=N/O [PAPA/NO],susceptibility of hypoxic cells to radiation,"[5]; 2 mM plus 20 Gy, Example 10",much more susceptible to radiation than control cells
same,protection against aerobic cisplatin-induced cytotoxicity,[6],protected V79 fibroblasts against aerobic cisplatin-induced cytotoxicity
same,enhancement of hypoxic cytotoxicity of SR 4233,"[7]; 25 μm SR 4233, 1 mM",enhance the hypoxic cytotoxicity of SR 4233
same,"colonies formed when 100,000 cells were plated",[7]; 25 μm SR 4233 plus 1 mM,no colonies were formed
"Cl.N=c1c[n+](N2CCOCC2)[n-]o1 [SIN-1, 3-morpholino-sydnonimine hydrochloride, reference compound]",susceptibility of hypoxic cells to radiation,"[5]; 2 mM plus 20 Gy, Example 10",not significantly sensitized to radiation as compared to control cells
same,enhancement of tumor radiation sensitivity,[8],enhances the radiation sensitivity of a transplantable murine tumor
"CC(=O)N[C@H](C(=O)O)C(C)(C)SN=O [SNAP, S-nitroso-N-acetyl penicillamine, reference compound]",susceptibility of hypoxic cells to radiation,"[5]; 2 mM plus 20 Gy, Example 7",significantly more susceptible to radiation than control cells
NCCCNCCCCN(CCCN)/[N+]([O-])=N/O [SPER/NO],susceptibility of hypoxic cells to radiation,[5]; 1 mM plus 15 Gy,more susceptible to radiation than control cells
N[C@@H](Cc1ccc(N(CCCl)CCCl)cc1)C(=O)O [melphalan],Overall survival vs control group,[9]; log-rank testing,significantly longer than the control group
same,Median survival,"[9]; melphalan 6.25 mg/kg i.p., with or without DEA/NO 70 mg/kg",20 days
O=O [oxygen],EC50,"[10]; Cricetulus griseus, Fibroblast, hypoxic cell radiosensitization, read-out: k value (concentration required to yield half the maximum effect)",2500 µg/mL
same,enhancement of killing of cells in culture with X-rays (factor),[11],2-3
same,hypoxic radiosensitization in rodent tumors,[12],some degree of hypoxic radiosensitization in rodent tumors
NCCCCNCCCN [spermidine],sensitizing properties,[13],failed to demonstrate any sensitizing properties whatsoever
NCCCNCCCCNCCCN [spermine],sensitizing properties,[13],failed to demonstrate any sensitizing properties whatsoever
nitric oxide [NO gas],SER,"[10]; 10^5 ppm NO, hypoxic",3.2
same,hypoxic cell radiosensitization,[10]; NO gas vs control / oxygen,potent hypoxic cell radiosensitizer; also recorded: not as efficient as oxygen in hypoxic cell radiosensitization
same,toxicity in the absence of radiation,[14],nontoxic in the absence of radiation
same,radiosensitization of hypoxic bacterial cells,[14]; ionizing radiation,sensitizes hypoxic bacterial cells to ionizing radiation
same,damage on administration of high concentrations,[15],damage to the lungs
